Literature values, collected in patent publication US8329734B2, “Topical therapy for migraine” (AFGIN Pharma LLC, priority 2009, dated 2012).

CNS(=O)(=O)Cc1ccc2[nH]cc(CCN(C)C)c2c1 [Sumatriptan, 3-(2-(dimethylamino)ethyl)-N-methyl-1H-indole-5-methanesulfonamide]
metabolism (in vivo): metabolized by the MAO system

CNS(=O)(=O)CCc1ccc2[nH]cc(C3CCN(C)CC3)c2c1 [naratriptan]
oral bioavailability (oral): ~70%

CN(C)CCc1c[nH]c2ccc(C[C@H]3COC(=O)N3)cc12 [zolmitriptan]
crossing of intact blood-brain barrier (in vivo): does cross an intact blood-brain barrier
metabolism (in vivo): metabolized by the MAO system

CN(C)CCc1c[nH]c2ccc(Cn3cncn3)cc12 [rizatriptan]
metabolism (in vivo): metabolized by the MAO system
